Measurements as given in patent US20240132484A1, “BROAD SPECTRUM ANTIVIRAL COMPOUNDS TARGETING THE SKI COMPLEX” (priority 2020, published 2024).
Several values for one entry are separate records, joined by “and”; a condition that tells them apart may be missing. Identical values can stand only once. Entries after “also recorded” stand apart in the source; their conditions may differ. Like-named read-outs stand apart in the source and are kept apart here.

Columns and labels:
[1] = test system: SARS2; assay type: cell-based, SARS-CoV-2; settings: for Percentage Inhibition Average 1 μM / Screening data (Relative infection to DMSO controls) Average 1 μM: SARS2, 1 μM; for Screening data (Relative infection to DMSO controls) Average 1 μM / Screening data (Relative infection to DMSO controls) Average 5 μM / Screening data (Relative infection to DMSO controls) Average 10 μM / Screening data (Relative infection to DMSO controls) Average 25 μM / Screening data (Relative infection to DMSO controls) Average 50 μM / Average (relative infection to DMSO over the 5 tested concentrations): 100=DMSO control; for Percentage Inhibition Average 5 μM / Screening data (Relative infection to DMSO controls) Average 5 μM: SARS2, 5 μM; for Percentage Inhibition Average 10 μM / Screening data (Relative infection to DMSO controls) Average 10 μM: SARS2, 10 μM; for Percentage Inhibition Average 25 μM / Screening data (Relative infection to DMSO controls) Average 25 μM: SARS2, 25 μM; for Percentage Inhibition Average 50 μM / Screening data (Relative infection to DMSO controls) Average 50 μM: SARS2, 50 μM; for Average (relative infection to DMSO over the 5 tested concentrations): SARS2, average over 1 to 50 uM
[2] = test system: cells (nuclei count); settings: for Relative cell count to DMSO controls, Average 1 μM / Relative cell count to DMSO controls, Average 5 μM / Relative cell count to DMSO controls, Average 10 μM / Relative cell count to DMSO controls, Average 25 μM / Relative cell count to DMSO controls, Average 50 μM: toxicity data, 100=DMSO control; for Toxicity Data, Average, Mean: average of Exp 1-3 (SMW475, SMW477, SMW478); for Relative cell count to DMSO controls, Average (for correlation analysis): average value over the 5 tested concentrations (1 to 50 uM); for Toxicity Data, Average, Mean percentage relative to DMSO control: Average of Exp 1 (SMW491) and Exp 2 (SMW492)

## COC(=O)c1csc(CN(CCN(C)C)Cc2cccs2)c1 [SILCS29]
[1]; Exp 1 (SMW475), 5 uM, single well
  Percentage Infection Relative to Appropriate DMSO Control with Avg Background Subtraction: 1.25% and −0.49% and 2.25%
[1]; Exp 1 (SMW475), 10 uM, single well
  Percentage Infection Relative to Appropriate DMSO Control with Avg Background Subtraction: 57.43% and 82.75% and 79.22%
[1]; Exp 1 (SMW475), 25 uM, single well
  Percentage Infection Relative to Appropriate DMSO Control with Avg Background Subtraction: 13.47% and 21.51% and 26.64%
[1]; Exp 1 (SMW475), 50 uM, single well
  Percentage Infection Relative to Appropriate DMSO Control with Avg Background Subtraction: 13.24% and 10.68% and 10.82%
[1]; Exp 2 (SMW477), 1 uM, single well
  Percentage Infection Relative to Appropriate DMSO Control with Avg Background Subtraction: 96.79% and 118.82% and 112.77%
[1]; Exp 2 (SMW477), 5 uM, single well
  Percentage Infection Relative to Appropriate DMSO Control with Avg Background Subtraction: 84.54% and 117.80% and 116.09%
[1]; Exp 2 (SMW477), 10 uM, single well
  Percentage Infection Relative to Appropriate DMSO Control with Avg Background Subtraction: 78.23% and 124.37% and 115.30%
[1]; Exp 2 (SMW477), 50 uM, single well
  Percentage Infection Relative to Appropriate DMSO Control with Avg Background Subtraction: 2.61% and 6.87% and 8.07%
[1]; Exp 3 (SMW478), 1 uM, Greiner Celigo plates
  Percentage Infection Relative to Appropriate DMSO Control with Avg Background Subtraction: 97.82% and 84.39% and 100.08%
[1]; Exp 3 (SMW478), 5 uM, Greiner Celigo plates
  Percentage Infection Relative to Appropriate DMSO Control with Avg Background Subtraction: 95.72% and 88.47% and 77.81%
[1]; Exp 3 (SMW478), 10 uM, Greiner Celigo plates
  Percentage Infection Relative to Appropriate DMSO Control with Avg Background Subtraction: 99.71% and 91.75% and 106.45%
[1]; Exp 3 (SMW478), 50 uM, Greiner Celigo plates
  Percentage Infection Relative to Appropriate DMSO Control with Avg Background Subtraction: 6.88% and −1.19% and −1.09%
[1]
  Percentage Inhibition Average 1 μM: 15.78%
  Screening data (Relative infection to DMSO controls) Average 1 μM: 84.22
  Percentage Inhibition Average 5 μM: 35.17%
  Screening data (Relative infection to DMSO controls) Average 5 μM: 64.83
  Percentage Inhibition Average 10 μM: 7.20%
  Screening data (Relative infection to DMSO controls) Average 10 μM: 92.80
  Percentage Inhibition Average 25 μM: 67.28%
  Screening data (Relative infection to DMSO controls) Average 25 μM: 32.72
  Percentage Inhibition Average 50 μM: 93.68%
  Screening data (Relative infection to DMSO controls) Average 50 μM: 6.32
  Average (relative infection to DMSO over the 5 tested concentrations): 56.18
[1]; average of Exp 1-3 (SMW475, SMW477, SMW478), n 9, 1 uM
  Infection Data, Average, Mean: 84.22%
[1]; average of Exp 1-3 (SMW475, SMW477, SMW478), n 9, 5 uM
  Infection Data, Average, Mean: 64.83%
[1]; average of Exp 1-3 (SMW475, SMW477, SMW478), n 9, 10 uM
  Infection Data, Average, Mean: 92.80%
[1]; average of Exp 1-3 (SMW475, SMW477, SMW478), n 9, 25 uM
  Infection Data, Average, Mean: 32.72%
[1]; average of Exp 1-3 (SMW475, SMW477, SMW478), n 9, 50 uM
  Infection Data, Average, Mean: 6.32%
[2]
  Relative cell count to DMSO controls, Average 1 μM: 104.12
  Relative cell count to DMSO controls, Average 5 μM: 110.81
  Relative cell count to DMSO controls, Average 10 μM: 90.99
  Relative cell count to DMSO controls, Average 25 μM: 101.15
  Relative cell count to DMSO controls, Average 50 μM: 67.81
  Relative cell count to DMSO controls, Average (for correlation analysis): 94.98
[2]; n 9, 1 uM
  Toxicity Data, Average, Mean: 104.12%
[2]; n 9, 5 uM
  Toxicity Data, Average, Mean: 110.81%
[2]; n 9, 10 uM
  Toxicity Data, Average, Mean: 90.99%
[2]; n 9, 25 uM
  Toxicity Data, Average, Mean: 101.15%
[2]; n 9, 50 uM
  Toxicity Data, Average, Mean: 67.81%

## COc1ccc(CNCCc2ccccc2F)c(OCC(O)CN2CCN(C)CC2)c1 (racemic) [SILCS41]
[1]
  SARS2 antiviral activity: better activity than the original compound; also recorded: improved properties over UMB18g
  Percentage Inhibition Average 1 μM: 51.68%
  Screening data (Relative infection to DMSO controls) Average 1 μM: 48.32
  Percentage Inhibition Average 5 μM: 82.65%
  Screening data (Relative infection to DMSO controls) Average 5 μM: 17.35
  Percentage Inhibition Average 10 μM: 98.13%
  Screening data (Relative infection to DMSO controls) Average 10 μM: 1.87
  Percentage Inhibition Average 25 μM: 97.07%
  Screening data (Relative infection to DMSO controls) Average 25 μM: 2.93
  Percentage Inhibition Average 50 μM: 94.09%
  Screening data (Relative infection to DMSO controls) Average 50 μM: 5.91
  Average (relative infection to DMSO over the 5 tested concentrations): 15.28
[1]; Exp 1 (SMW491), 1 uM, Nunc Celigo plates
  Percentage Infection Relative to Appropriate DMSO Control with Avg Background Subtraction: 92.14% and 78.53%
[1]; Exp 1 (SMW491), 5 uM, Nunc Celigo plates
  Percentage Infection Relative to Appropriate DMSO Control with Avg Background Subtraction: 20.40% and 20.73%
[1]; Exp 1 (SMW491), 10 uM, Nunc Celigo plates
  Percentage Infection Relative to Appropriate DMSO Control with Avg Background Subtraction: 2.55% and 1.51%
[1]; Exp 1 (SMW491), 25 uM, Nunc Celigo plates
  Percentage Infection Relative to Appropriate DMSO Control with Avg Background Subtraction: 2.26% and 4.77%
[1]; Exp 1 (SMW491), 50 uM, Nunc Celigo plates
  Percentage Infection Relative to Appropriate DMSO Control with Avg Background Subtraction: 5.27% and 3.84%
[1]; Exp 2 (SMW492), 1 uM, Nunc Celigo plates
  Percentage Infection Relative to Appropriate DMSO Control with Avg Background Subtraction: 11.86% and 10.73%
[1]; Exp 2 (SMW492), 5 uM, Nunc Celigo plates
  Percentage Infection Relative to Appropriate DMSO Control with Avg Background Subtraction: 15.34% and 12.91%
[1]; Exp 2 (SMW492), 10 uM, Nunc Celigo plates
  Percentage Infection Relative to Appropriate DMSO Control with Avg Background Subtraction: 1.08% and 2.35%
[1]; Exp 2 (SMW492), 25 uM, Nunc Celigo plates
  Percentage Infection Relative to Appropriate DMSO Control with Avg Background Subtraction: 1.58% and 3.10%
[1]; Exp 2 (SMW492), 50 uM, Nunc Celigo plates
  Percentage Infection Relative to Appropriate DMSO Control with Avg Background Subtraction: 8.27% and 6.25%
[1]; average of Exp 1-2 (SMW491, SMW492), n 4, 1 uM
  Infection Data, Average, Mean: 48.32%
[1]; average of Exp 1-2 (SMW491, SMW492), n 4, 5 uM
  Infection Data, Average, Mean: 17.35%
[1]; average of Exp 1-2 (SMW491, SMW492), n 4, 10 uM
  Infection Data, Average, Mean: 1.87%
[1]; average of Exp 1-2 (SMW491, SMW492), n 4, 25 uM
  Infection Data, Average, Mean: 2.93%
[1]; average of Exp 1-2 (SMW491, SMW492), n 4, 50 uM
  Infection Data, Average, Mean: 5.91%
[2]
  Relative cell count to DMSO controls, Average 1 μM: 118.33
  Relative cell count to DMSO controls, Average 5 μM: 139.55
  Relative cell count to DMSO controls, Average 10 μM: 124.03
  Relative cell count to DMSO controls, Average 25 μM: 118.34
  Relative cell count to DMSO controls, Average 50 μM: 101.49
  Relative cell count to DMSO controls, Average (for correlation analysis): 120.35
[2]; n=4, 1 uM
  Toxicity Data, Average, Mean percentage relative to DMSO control: 118.33%
[2]; n=4, 5 uM
  Toxicity Data, Average, Mean percentage relative to DMSO control: 139.55%
[2]; n=4, 10 uM
  Toxicity Data, Average, Mean percentage relative to DMSO control: 124.03%
[2]; n=4, 25 uM
  Toxicity Data, Average, Mean percentage relative to DMSO control: 118.34%
[2]; n=4, 50 uM
  Toxicity Data, Average, Mean percentage relative to DMSO control: 101.49%

## CCCCCCCCNC(=O)C1=C(C)NC(=O)NC1c1ccc(OC)c(OC)c1 (stereo not shown) [SILCS65]
[1]
  Percentage Inhibition Average 1 μM: 12.85%
  Screening data (Relative infection to DMSO controls) Average 1 μM: 87.15
  Percentage Inhibition Average 5 μM: 42.13%
  Screening data (Relative infection to DMSO controls) Average 5 μM: 57.87
  Percentage Inhibition Average 10 μM: −8.68%
  Screening data (Relative infection to DMSO controls) Average 10 μM: 108.68
  Percentage Inhibition Average 25 μM: −33.09%
  Screening data (Relative infection to DMSO controls) Average 25 μM: 133.09
  Percentage Inhibition Average 50 μM: −46.13%
  Screening data (Relative infection to DMSO controls) Average 50 μM: 146.13
  Average (relative infection to DMSO over the 5 tested concentrations): 106.58
[2]
  Relative cell count to DMSO controls, Average 1 μM: 104.64
  Relative cell count to DMSO controls, Average 5 μM: 115.73
  Relative cell count to DMSO controls, Average 10 μM: 98.27
  Relative cell count to DMSO controls, Average 25 μM: 89.35
  Relative cell count to DMSO controls, Average 50 μM: 75.91
  Relative cell count to DMSO controls, Average (for correlation analysis): 96.78
